According to the kinase profiling compilation of Christmann-Franck et al. (2016):

Columns and labels:
Test in all cases: radiometric filter-binding kinase assay
[1] = target: PHKG1 (human) (UniProt Q16816)
[2] = target: MAPKAPK5 (human) (UniProt Q8IW41)
[3] = target: INSRR (human) (UniProt P14616); conditions: compound 1.0 µM
[4] = target: MAP2K1 (human) (UniProt Q02750); conditions: compound 1.0 µM
[5] = target: DYRK3 (human) (UniProt O43781); conditions: compound 1.0 µM
[6] = target: SRPK1 (human) (UniProt Q96SB4)
SRPK1 (human), sequence (Q96SB4 whole entry, looked up): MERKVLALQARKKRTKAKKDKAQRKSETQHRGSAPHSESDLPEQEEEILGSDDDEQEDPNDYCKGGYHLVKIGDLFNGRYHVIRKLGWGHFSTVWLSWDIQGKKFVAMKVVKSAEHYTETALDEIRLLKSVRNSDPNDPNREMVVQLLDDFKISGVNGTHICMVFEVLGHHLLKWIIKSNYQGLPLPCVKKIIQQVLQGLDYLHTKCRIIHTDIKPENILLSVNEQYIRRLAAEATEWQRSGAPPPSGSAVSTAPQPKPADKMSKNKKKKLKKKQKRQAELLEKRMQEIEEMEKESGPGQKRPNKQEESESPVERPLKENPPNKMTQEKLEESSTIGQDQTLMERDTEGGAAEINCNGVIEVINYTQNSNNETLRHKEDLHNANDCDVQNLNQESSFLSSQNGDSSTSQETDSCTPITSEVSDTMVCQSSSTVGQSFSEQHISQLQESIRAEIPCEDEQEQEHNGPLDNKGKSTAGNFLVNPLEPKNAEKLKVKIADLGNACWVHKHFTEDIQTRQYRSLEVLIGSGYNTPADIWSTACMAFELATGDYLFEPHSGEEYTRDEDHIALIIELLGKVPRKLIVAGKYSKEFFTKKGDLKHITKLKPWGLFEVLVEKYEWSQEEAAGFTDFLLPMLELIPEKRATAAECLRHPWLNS

[7] = target: MYLK (human) (UniProt Q15746)
MYLK (human), sequence (Q15746 whole entry, looked up): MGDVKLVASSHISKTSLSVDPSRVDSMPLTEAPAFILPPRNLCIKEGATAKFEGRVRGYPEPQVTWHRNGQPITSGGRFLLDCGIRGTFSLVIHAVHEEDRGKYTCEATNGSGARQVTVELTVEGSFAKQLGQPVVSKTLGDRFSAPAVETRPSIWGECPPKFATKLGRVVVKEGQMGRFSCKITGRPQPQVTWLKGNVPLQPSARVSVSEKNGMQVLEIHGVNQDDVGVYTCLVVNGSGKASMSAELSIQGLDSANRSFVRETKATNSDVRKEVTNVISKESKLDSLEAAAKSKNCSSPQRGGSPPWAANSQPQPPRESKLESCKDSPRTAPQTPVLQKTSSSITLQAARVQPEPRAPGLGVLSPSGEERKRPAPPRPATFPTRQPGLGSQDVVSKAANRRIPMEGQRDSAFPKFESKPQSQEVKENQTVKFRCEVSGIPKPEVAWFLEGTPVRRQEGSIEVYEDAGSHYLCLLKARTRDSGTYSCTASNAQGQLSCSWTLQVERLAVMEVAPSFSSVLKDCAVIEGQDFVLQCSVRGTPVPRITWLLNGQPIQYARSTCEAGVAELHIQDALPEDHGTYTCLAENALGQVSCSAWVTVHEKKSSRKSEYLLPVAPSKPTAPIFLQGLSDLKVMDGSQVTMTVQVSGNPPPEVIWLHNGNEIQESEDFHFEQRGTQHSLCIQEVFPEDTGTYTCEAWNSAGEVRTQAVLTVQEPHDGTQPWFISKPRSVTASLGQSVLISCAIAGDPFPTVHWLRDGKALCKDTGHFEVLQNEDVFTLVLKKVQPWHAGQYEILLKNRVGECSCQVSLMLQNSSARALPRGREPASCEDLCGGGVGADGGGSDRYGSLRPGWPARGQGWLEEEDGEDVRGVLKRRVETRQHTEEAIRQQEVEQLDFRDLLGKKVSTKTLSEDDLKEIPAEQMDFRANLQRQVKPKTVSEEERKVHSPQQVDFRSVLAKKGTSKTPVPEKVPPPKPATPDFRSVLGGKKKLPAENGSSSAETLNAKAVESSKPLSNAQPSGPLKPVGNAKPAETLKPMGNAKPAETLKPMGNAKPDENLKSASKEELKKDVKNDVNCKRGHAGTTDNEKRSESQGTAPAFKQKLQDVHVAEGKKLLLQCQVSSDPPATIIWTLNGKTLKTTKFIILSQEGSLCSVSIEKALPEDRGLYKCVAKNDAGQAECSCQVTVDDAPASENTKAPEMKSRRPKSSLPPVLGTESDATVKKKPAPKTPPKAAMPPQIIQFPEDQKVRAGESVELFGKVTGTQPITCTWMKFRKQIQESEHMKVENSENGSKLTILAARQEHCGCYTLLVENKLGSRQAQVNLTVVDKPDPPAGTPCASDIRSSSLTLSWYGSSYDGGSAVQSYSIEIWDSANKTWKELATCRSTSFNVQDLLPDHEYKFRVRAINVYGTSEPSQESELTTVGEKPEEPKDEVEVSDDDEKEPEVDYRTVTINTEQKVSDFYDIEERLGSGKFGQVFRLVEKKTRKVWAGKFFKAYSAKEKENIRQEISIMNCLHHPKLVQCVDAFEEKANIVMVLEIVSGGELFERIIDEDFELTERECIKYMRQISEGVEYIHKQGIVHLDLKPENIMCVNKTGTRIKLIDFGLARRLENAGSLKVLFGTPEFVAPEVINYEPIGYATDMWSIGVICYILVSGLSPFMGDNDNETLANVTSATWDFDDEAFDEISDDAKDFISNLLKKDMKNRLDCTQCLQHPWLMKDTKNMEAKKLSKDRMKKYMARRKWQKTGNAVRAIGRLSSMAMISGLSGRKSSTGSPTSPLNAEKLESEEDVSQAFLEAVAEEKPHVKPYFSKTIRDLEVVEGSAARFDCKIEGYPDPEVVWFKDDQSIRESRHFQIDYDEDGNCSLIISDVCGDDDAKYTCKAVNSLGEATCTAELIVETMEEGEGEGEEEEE

[8] = target: MAP3K9 (human) (UniProt P80192); conditions: compound 1.0 µM
[9] = target: MAP3K7 TAB1 (human) (UniProt Q15750+O43318)
MAP3K7 TAB1 (human), sequence (O43318 whole entry, looked up): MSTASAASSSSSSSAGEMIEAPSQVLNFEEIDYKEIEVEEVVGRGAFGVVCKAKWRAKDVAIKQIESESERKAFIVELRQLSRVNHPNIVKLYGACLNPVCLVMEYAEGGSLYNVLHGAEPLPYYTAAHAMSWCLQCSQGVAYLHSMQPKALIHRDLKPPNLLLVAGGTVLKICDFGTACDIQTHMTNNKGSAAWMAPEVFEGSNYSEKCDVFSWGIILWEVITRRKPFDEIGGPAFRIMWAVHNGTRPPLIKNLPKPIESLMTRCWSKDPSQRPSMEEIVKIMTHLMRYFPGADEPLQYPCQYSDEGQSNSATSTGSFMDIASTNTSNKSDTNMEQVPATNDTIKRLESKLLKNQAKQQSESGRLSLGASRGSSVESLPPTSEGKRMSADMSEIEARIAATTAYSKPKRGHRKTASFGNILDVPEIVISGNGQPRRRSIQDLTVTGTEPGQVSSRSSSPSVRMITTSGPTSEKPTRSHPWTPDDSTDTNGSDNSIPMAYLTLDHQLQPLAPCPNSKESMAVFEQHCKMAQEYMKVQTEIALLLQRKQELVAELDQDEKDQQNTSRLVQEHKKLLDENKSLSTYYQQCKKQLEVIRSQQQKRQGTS
MAP3K7 TAB1 (human), sequence (Q15750 whole entry, looked up): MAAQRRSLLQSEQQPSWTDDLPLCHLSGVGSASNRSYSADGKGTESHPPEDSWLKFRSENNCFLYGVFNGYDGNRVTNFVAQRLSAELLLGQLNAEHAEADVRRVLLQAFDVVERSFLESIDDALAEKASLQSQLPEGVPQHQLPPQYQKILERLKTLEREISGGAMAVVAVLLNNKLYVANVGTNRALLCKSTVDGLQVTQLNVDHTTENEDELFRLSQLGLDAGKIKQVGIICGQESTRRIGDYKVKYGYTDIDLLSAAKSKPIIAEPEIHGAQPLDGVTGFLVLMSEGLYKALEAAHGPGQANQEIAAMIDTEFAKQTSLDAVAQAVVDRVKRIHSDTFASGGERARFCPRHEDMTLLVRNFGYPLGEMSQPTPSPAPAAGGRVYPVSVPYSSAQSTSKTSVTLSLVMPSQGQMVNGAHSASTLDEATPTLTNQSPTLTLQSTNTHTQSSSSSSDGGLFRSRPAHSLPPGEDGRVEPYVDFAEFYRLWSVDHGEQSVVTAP

[10] = target: RIPK2 (human) (UniProt O43353)
[11] = target: IKBKE (human) (UniProt Q14164); conditions: compound 10.0 µM
[12] = target: IGF1R (human) (UniProt P08069)
[13] = target: NTRK1 (human) (UniProt P04629); conditions: compound 1.0 µM
[14] = test system: LCK (mouse); conditions: compound 1.0 µM; accession and sequence are those of the human protein
[15] = target: STK11 CAB39 STRADA (human) (UniProt Q9Y376+Q7RTN6+Q15831)
STK11 CAB39 STRADA (human), sequence (Q15831 whole entry, looked up): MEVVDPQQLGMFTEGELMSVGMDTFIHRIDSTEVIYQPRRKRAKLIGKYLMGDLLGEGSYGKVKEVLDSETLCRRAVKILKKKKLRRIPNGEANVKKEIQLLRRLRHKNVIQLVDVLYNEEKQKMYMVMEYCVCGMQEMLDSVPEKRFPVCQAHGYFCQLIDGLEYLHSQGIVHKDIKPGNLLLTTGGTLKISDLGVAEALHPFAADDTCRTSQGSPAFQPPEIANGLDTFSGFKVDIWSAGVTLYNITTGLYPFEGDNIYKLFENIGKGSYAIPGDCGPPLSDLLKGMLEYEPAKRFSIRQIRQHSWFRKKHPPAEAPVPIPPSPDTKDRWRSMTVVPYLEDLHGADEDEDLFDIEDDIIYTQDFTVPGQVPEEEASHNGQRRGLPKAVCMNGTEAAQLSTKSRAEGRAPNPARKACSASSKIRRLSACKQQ
STK11 CAB39 STRADA (human), sequence (Q7RTN6 whole entry, looked up): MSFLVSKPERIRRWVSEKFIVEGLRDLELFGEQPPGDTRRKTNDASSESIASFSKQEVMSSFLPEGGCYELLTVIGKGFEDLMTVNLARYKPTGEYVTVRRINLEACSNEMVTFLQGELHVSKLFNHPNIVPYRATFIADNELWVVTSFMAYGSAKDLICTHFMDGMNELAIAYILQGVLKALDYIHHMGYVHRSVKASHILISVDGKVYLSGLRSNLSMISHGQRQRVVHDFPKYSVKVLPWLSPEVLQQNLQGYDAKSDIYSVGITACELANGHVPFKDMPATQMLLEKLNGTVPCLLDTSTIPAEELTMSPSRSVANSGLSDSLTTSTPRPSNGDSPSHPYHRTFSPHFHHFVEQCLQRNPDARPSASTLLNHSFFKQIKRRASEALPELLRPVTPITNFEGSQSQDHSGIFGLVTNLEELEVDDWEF
STK11 CAB39 STRADA (human), sequence (Q9Y376 whole entry, looked up): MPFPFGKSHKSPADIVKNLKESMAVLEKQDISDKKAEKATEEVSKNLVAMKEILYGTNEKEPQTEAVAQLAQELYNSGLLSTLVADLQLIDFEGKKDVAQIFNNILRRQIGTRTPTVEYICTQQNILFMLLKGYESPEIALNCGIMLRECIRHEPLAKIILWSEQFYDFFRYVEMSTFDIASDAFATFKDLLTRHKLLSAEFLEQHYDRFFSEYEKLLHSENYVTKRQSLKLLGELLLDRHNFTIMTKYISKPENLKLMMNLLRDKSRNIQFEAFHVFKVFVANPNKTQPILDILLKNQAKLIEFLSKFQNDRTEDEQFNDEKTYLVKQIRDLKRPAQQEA

[16] = target: NEK6 (human) (UniProt Q9HC98); conditions: compound 10.0 µM
[17] = target: MELK (human) (UniProt Q14680); conditions: compound 1.0 µM
[18] = target: STK24 (human) (UniProt Q9Y6E0); conditions: compound 1.0 µM
[19] = target: MAPK9 (human) (UniProt P45984); conditions: compound 1.0 µM
[20] = target: CSNK1D (human) (UniProt P48730); conditions: compound 1.0 µM
[21] = target: CDK2 CCNA2 (human) (UniProt P20248+P24941)
[22] = target: YES1 (human) (UniProt P07947); conditions: compound 1.0 µM
[23] = target: TEK (human) (UniProt Q02763)

`O=C(Nc1cccnc1)c1cc(-c2ccnc(F)c2)ccc1OCc1ccccc1` gave a residual activity ([1]; compound 1.0 µM) of 78%, a residual activity ([1]; compound 10.0 µM) of 75% and a residual activity ([2]; compound 1.0 µM) of 109%. The residual activity ([2]; compound 10.0 µM) was 114%, the residual activity [3] was 76% and the residual activity [4] was 77%. The residual activity [5] was 101%, the residual activity ([6]; compound 1.0 µM) was 61% and the residual activity ([6]; compound 10.0 µM) was 69%. The residual activity ([7]; compound 1.0 µM) was 32%, the residual activity ([7]; compound 10.0 µM) was 23% and the residual activity [8] was 69%. It also gave a residual activity ([9]; compound 1.0 µM) of 108%, a residual activity ([9]; compound 10.0 µM) of 101% and a residual activity ([10]; compound 1.0 µM) of 59%. For the same compound, the residual activity ([10]; compound 10.0 µM) was 56%, the residual activity [11] was 102% and the residual activity ([12]; compound 1.0 µM) was 123%. It also gave a residual activity ([12]; compound 10.0 µM) of 117%, a residual activity [13] of 80% and a residual activity [14] of 113%. For the same compound, the residual activity ([15]; compound 1.0 µM) was 97%, the residual activity ([15]; compound 10.0 µM) was 105% and the residual activity [16] was 65%. It also gave a residual activity [17] of 102%, a residual activity [18] of 101% and a residual activity [19] of 107%. The residual activity [20] was 107%, the residual activity ([21]; compound 1.0 µM) was 113% and the residual activity ([21]; compound 10.0 µM) was 117%. For the same compound, the residual activity [22] was 120%, the residual activity ([23]; compound 1.0 µM) was 119% and the residual activity ([23]; compound 10.0 µM) was 133%.
